The subject of series [1] is HPV 16. The series can be described thus: HPV 16 episome DNA levels in W12E cells by Q-PCR (Taqman). It is filed as cell-based, Human papilloma virus. Conditions: for effect on HPV viral DNA: comparison of 1037, distamycin A and cidofovir, FIG. 5; for effect on absolute HPV 16 DNA levels: higher doses, in some experiments, FIG. 3. A general note: In qPCR the cycle at which signal appears reflects the starting amount.

Another series can be described thus: MTT cell viability assay. Conditions: human, keratinocytes that maintain HPV 16 episomes. Here is the method: (§1) Cells were cultured for 5 days in the presence of polyamide; % Cell Viability=(OD590 drug/OD590 control)×100; n=3.
(§2) Solubilisation of the cells by the addition of a detergent results in the liberation of the crystals which are solubilized. The number of surviving cells is directly proportional to the level of the formazan product created. The color can then be quantified using a simple colorimetric assay. The results can be read on a multiwell scanning spectrophotometer (ELISA reader).
(§3) Cell viability was also assessed routinely with the MTT assay.

The test system of series [2] is Keratinocytes that maintain HPV 16 episomes. The series is described as follows: MTT cell viability assay. Conditions: MTT assay; FIG. 2B, FIG. 5. The protocol: as §1, §2, §3
In general terms: Tetrazolium dyes change colour on reduction, which living cells bring about.

The subject of another series is HPV episomal DNA. The series can be described thus: Southern blot of HPV episomal DNA. Conditions: 1 μM and 10 μM; FIG. 4. It is filed as cell-based, Human papilloma virus. The protocol:
Several alternative approaches have been used to confirm the effects of our compounds on viral DNA. […] DMSO is the vehicle control; HPV DNA indicates the linearized HPV DNA used to generate the hybridization probe via random primed labeling with DIG-dUTP (Roche); following hybridization, blot was incubated with anti-DIG-AP conjugate and HPV DNA detected using ECF substrate (Amersham) and Storm phosphorimager. […] Other NV compounds have similarly shown the expected decrease in viral DNA by Southern blotting.

The subject of another series is HPV31. The series is described as follows: HPV31 DNA levels in keratinocytes by real-time PCR. It is filed as cell-based, Human papilloma virus. Conditions: effective (pseudo) IC50. Here is the method:
(§4) Human keratinocytes, including those maintaining HPV episomes, are cultured on mitomycin C-treated J2 3T3 cells in media containing three parts Dulbecco's modified Eagle medium (DMEM) and one part F12 media, our modification of published methods (Rheinwald and Green, 1975). Media (E Media) is supplemented with 0.4 μg/mL hydrocortisone, 10 ng/mL cholera toxin, 5 μg/mL insulin, 24 μg/mL adenine, 5 μg/mL transferrin, […] (T3), 10 ng/mL epidermal growth factor (EGF), 1% penicillin-streptomycin, and 5% fetal bovine serum (FBS). All cells are passaged at 70% confluency at a split ratio of 1:5.
(§5) Polyamides for HPV 18 are dissolved at 10 mM in 100% DMSO and diluted with H2O to 1 mM. Polyamides are added to cells in E media at final concentrations of 0.1-10 μM, with final DMSO concentrations of 0.1%. As controls, cells are incubated with normal E media and E media containing the “vehicle” 0.1% DMSO. The HPV DNA levels are then quantified according to previously published procedures (Garner-Hamrick and Fisher, Virology, 301, 334-41, 2002). After incubation, cells are harvested from the plates by either trypsinization or direct lysis with proteinase K digestion buffer (PK buffer: 100 mM NaCl, 10 mM Tris pH 8, 25 mM EDTA, 0.5% SDS, 0.1 mg/mL proteinase K). Trypsinized cells are counted on a hemocytometer and pelleted by centrifugation. Episomal HPV is isolated by the Hirt method (Hirt, 1967) and cell pellets are lysed in 0.6% SDS with 10 mM EDTA. NaCl is next added to a final concentration of 1 M. Following an overnight incubation at 4° C., precipitates containing the chromosomal DNA are spun down and episomal DNA precipitated by the addition of isopropanol. Cells lysed directly in PK buffer are transferred to microfuge tubes and incubated at 50° C. for 2 h. Lysates are then extracted with phenol/chloroform/isoamyl alcohol and spun through a phase lock gel (Eppendorf, Hamburg, Germany). Total DNA is then precipitated with 0.3 M NaOAc and 2.5 vol. ethanol and resuspended in Tris-EDTA (TE) buffer.
HPV31 primers-probe sets for PCR were also designed within the L1 gene:
(§6) All primers and probes are synthesized and HPLC purified by Applied Biosystems (Foster City, Calif.). The HPV probes are labeled with the 5′ reporter dye FAM (6-carboxy-fluorescein) and the 3′ quencher dye TAMRA (6-carboxytetramethyl-rhodamine). A standard curve is generated using a range of 10^8 to 10 copies/reaction of cloned, genomic HPV31 or HPV18 DNA using the following formula: (1.82×10^15)(μg/μL stock DNA)/(length in base pairs)(2)=copies/μL stock DNA. PCR reactions contain final concentrations of 1× Universal Master Mix (PE Applied Biosystems), 200 nM of each primer, and 250 nM probe (PE Applied Biosystems) in a reaction volume of 25 μL. Each Hirt-isolated DNA sample is analyzed in triplicate reactions for episomal HPV. Copies/reaction are determined from the standard curve, and copies/cell determined according to the following formula: (copies/reaction)×(DNA dilution)/(total # cells)=copies/cell.

For the next series, the system named is HPV18. The series can be described thus: HPV18 DNA levels in keratinocytes by real-time PCR. It is filed as cell-based, Human papilloma virus. Conditions: effective (pseudo) IC50. Here is the method:
as §4, §5
Viral DNA levels are next quantified according to variations on our previously published methods (Garner-Hamrick and Fisher, Virology, 301, 334-41, 2002). Quantitative PCR is performed using Real-Time PCR technology on an ABI PRISM 7700 Sequence Detector. All primers and probes were designed using Primer Express 1.0 (ABI). For HPV 18, PCR primer-probe sets were designed within the L1 gene:
as §6

Series [3] has as its system HPV 16. The series can be described thus: HPV 16 episome DNA levels in W12E cells by Q-PCR (Taqman). It is filed as cell-based, Human papilloma virus. Conditions: 10 μM, drug washed out on day 17, sub-cultured without drug for 2 weeks; FIG. 7.
Series [4] deals with rat hepatoma cells (H4IIE). It is filed as cell-based. The protocol: (§7) Toxicity testing has been carried out for 3 separate polyamides. Two different Rat hepatoma assays were used because they are industry standards for predicting in vivo toxicity. The assays for ATP and membrane integrity assays are described in detail below. Thus, rat hepatoma cells (H4IIE) were seeded into 96-well plates and cultured in medium containing 20% bovine serum. Following an equilibration period of 48 hr, the cells were treated with the test compounds at various concentrations for 24 hr at 37° C. in 5% CO2. Polyamide compounds were tested for toxicity in the two separate assays. A TC50 (concentration needed to kill half of the cells) was not achieved for any polyamides tested over the wide concentration range explored.

The nature of series [5]: Membrane integrity / modified propidium iodide procedure. It is filed as cell-based. Conditions: rat, membrane integrity assay, read-out: TC50. Here is the method:
as §7
A modified propidium iodide (PI) procedure was used to assess cell proliferation/viability. This specific nucleic acid binding dye fluoresces when intercalated within the nucleic acids. The […] enhances PI fluorescence approximately 20 times while the excitation maxima are shifted 30-40 ηm. During method development experiments, it was determined that Triton-X-100 was the best solution to permeabilize the H4IIE cells thereby allowing the PI access to intracellular RNA and DNA. Fluorescence was measured using a Packard Fusion plate reader at 540 ηm excitation and 610 nm emission.

Where [6] appears, read: effective (pseudo) IC50, 50% reduction in HPV DNA relative to vehicle (0.1% DMSO), read-out: HPV-16 IC50.

pIC50: −log10 of the molar value. Read-outs that look alike come from different tables or passages of the source.

With `Nc1ccn(C[C@@H](CO)OCP(=O)(O)O)c(=O)n1` [Cidofovir, reference compound], the “loss of total HPV DNA content” value in the series with HPV 16 [1] (72 hours, only at very high concentrations, FIG. 1) is recorded as “approximately 40%”. The “selectivity index (SI: ratio of IC50 to TD50)” value in the series with HPV 16 [1] (cell culture) is listed as 2.5. Besides, the “effect on HPV viral DNA” value with HPV 16 [1] is on record as “only effective against HPV DNA at high concentrations”. The compound further came in with a CC50 in the series “MTT cell viability assay” of 750000 nM. Moreover, the “effect on cell viability” value in series [2] was “also affect cell viability”.
One may read the pIC50 as the negative decadic logarithm of the IC50, by convention in mol/L. Regarding `CN(CCCN)CCCNC(=O)CCNC(=O)c1cc(NC(=O)c2cc(NC(=O)c3cc(NC(=O)CCNC(=O)c4cc(NC(=O)c5cc(NC(=O)c6cc(NC(=O)[C@H](N)CCNC(=O)c7cc(NC(=O)c8cc(NC(=O)c9cc(NC(=O)CCNC(=O)c%10cc(NC(=O)c%11cc(NC(=O)c%12nccn%12C)cn%11C)cn%10C)cn9C)cn8C)cn7C)cn6C)cn5C)cn4C)cn3C)cn2C)cn1C` [Polyamide 1020, ImPPβPPPγNH2PPPβPPPβTa], the negative logarithm of the IC50 (pIC50) is less than 6.00 in the series with HPV 16 [1] (setting [6]) and 6.00 to 7.00 with HPV31. Besides, in the series with HPV episomal DNA, the “episomal DNA content by Southern blot” value is listed as “expected decrease in episomal DNA content”.
Regarding `CN(CCCN)CCCNC(=O)CCNC(=O)c1cc(NC(=O)c2cc(NC(=O)c3cc(NC(=O)c4cc(NC(=O)CCNC(=O)c5cc(NC(=O)c6cc(NC(=O)CCCNC(=O)c7cc(NC(=O)c8cc(NC(=O)c9cc(NC(=O)CCNC(=O)c%10cc(NC(=O)c%11cc(NC(=O)c%12nccn%12C)cn%11C)cn%10C)cn9C)cn8C)cn7C)cn6C)cn5C)cn4C)cn3C)cn2C)cn1C` [Polyamide 1028, ImPPβPPPγPPβPPPPβTa], in the series with HPV 16 [1] (concentrations as low as 5 μM), the “HPV episomes by QPCR” value is “undetectable levels”. Besides, the pIC50 in the series on HPV 16 [1] (setting [6]) is 6.00 to 7.00; with HPV 16 [1] (read-out: IC50 against HPV 16) it was 7.00; in the series on HPV18, 6.00 to 7.00; with HPV31, 6.00 to 7.00. Besides, the “effect on absolute HPV 16 DNA levels” value in the series with HPV 16 [1] is recorded as “nearly complete elimination of detectable viral DNA”. Moreover, in the series on HPV 16 [3], the “HPV 16 episomal DNA rebound after withdrawal” value is reported as “recovery does not approach control levels for at least two weeks”. The same compound registered a CC50 in series [4] greater than 300000 nM.
Take `CN(CCCN)CCCNC(=O)CCNC(=O)c1cc(NC(=O)c2cc(NC(=O)c3cc(NC(=O)CCNC(=O)c4cc(NC(=O)c5cc(NC(=O)c6cc(NC(=O)CCNC(=O)c7cc(NC(=O)c8cc(NC(=O)[C@H](N)CCNC(=O)c9cc(NC(=O)c%10cc(NC(=O)CCNC(=O)c%11cc(NC(=O)c%12nc(NC(=O)c%13cc(NC(=O)CCNC(=O)c%14cc(NC(=O)c%15cc(NC(=O)c%16nccn%16C)cn%15C)cn%14C)cn%13C)cn%12C)cn%11C)cn%10C)cn9C)cn8C)cn7C)cn6C)cn5C)cn4C)cn3C)cn2C)cn1C` [Polyamide 1037, ImPPβPIPβPPγNH2PPβPPPβPPPβTa]: the “effect on HPV viral DNA” value in the series on HPV 16 [1] was “dramatic reduction of viral DNA levels”. The pIC50 in the series on HPV 16 [1] (setting [6]) is 6.00 to 7.00; in the series on HPV18 it was no less than 7.00; in the series with HPV31 it was no less than 7.00. Further, the “effect on absolute HPV 16 DNA levels” value with HPV 16 [1] is given as “nearly complete elimination of detectable viral DNA”. Besides, the “effect on cell viability” value in [2] is “little impact on cell viability”.
For the compound `CC[C@@]1(O)C(=O)OCc2c1cc1n(c2=O)Cc2cc3ccccc3nc2-1` [camptothecin], the CC50 at 24 h in series [5] (H4IIE rat hepatoma cells) turned out to be 5000 nM.
On to `Cn1cc(NC(=O)c2cc(NC(=O)c3cc(NC=O)cn3C)cn2C)cc1C(=O)NCCC(=N)N` [distamycin A, reference compound], for which, in the series with HPV 16 [1], the “effect on HPV viral DNA” value was “only effective against HPV DNA at high concentrations”. Moreover, the “effect on cell viability” value in series [2] is “also affect cell viability”.
Regarding `C=C(C)[C@H]1Cc2c(ccc3c2O[C@@H]2COc4cc(OC)c(OC)cc4[C@@H]2C3=O)O1` [rotenone], in [5], the CC50 at 24 h turned out to be 490 nM.

For the origin of these results see patent US9290551B2, “Compounds for treating papilloma virus infection” (NanoVir, LLC, priority 2012, dated 2016).
